Peptide text beside a SMILES is read from it. * marks the point of attachment. Cbz = O=C(OCc1ccccc1)*
How the values were obtained:
[1] = system: 急性早幼粒白血病细胞NB4; assay: MTT cell survival assay, NB4 cells; format: cell-based; details: 48 h; for Enhancement of the cancer cell inhibition of arsenic trioxide by a proteasome inhibitor: proteasome inhibitor fixed 40 nM combined with arsenic trioxide 0.1-0.5 μM, Fig. 6; for 细胞存活率 (cell survival rate): arsenic trioxide 0.1-0.5 μM, oprozomib 5-40 nM, alone or combined (fixed 40 nM oprozomib or fixed 0.4 μM arsenic trioxide), Fig. 1, 2
[2] = system: 急性早幼粒白血病细胞HL-60; assay: MTT cell survival assay, HL-60 cells; format: cell-based; details: HL-60, MTT, 48 h; arsenic trioxide 0.4-2 μM, oprozomib 40-200 nM, alone or combined (fixed 160 nM oprozomib or fixed 1.2 μM arsenic trioxide); Fig. 3, 4
[3] = system: 慢性髓性白血病细胞K562; assay: MTT cell survival assay, K562 cells; format: cell-based; details: 48 h, arsenic trioxide 0.4 μM, oprozomib 40 nM, alone or combined, Fig. 5
[4] = system: 人肝癌细胞SMMC-7721; assay: MTT cell survival assay, SMMC-7721 cells; format: cell-based, 人; details: SMMC-7721, MTT, 48 h; arsenic trioxide 0.4 μM, oprozomib 40 nM, alone or combined; Fig. 5
[5] = system: 人结直肠腺癌细胞CaCo-2; assay: MTT cell survival assay, CaCo-2 cells; format: cell-based, 人; details: CaCo-2, MTT, 48 h; arsenic trioxide 0.4 μM, oprozomib 40 nM, alone or combined; Fig. 5
[6] = system: 急性早幼粒白血病细胞NB4; assay: Mouse APL model: flow cytometry of bone marrow cells for human CD33+; format: in vivo, NOD/SCID小鼠; details: moribund mice, bone marrow cultured 24 h; oprozomib 0.43 mg/kg iv, arsenic trioxide 1.53 mg/kg iv; compared with positive control; Fig. 8-12
[7] = system: 急性早幼粒白血病细胞NB4; assay: Mouse APL model: HE staining of liver and spleen sections; format: in vivo, NOD/SCID小鼠; details: oprozomib 0.43 mg/kg iv, arsenic trioxide 1.53 mg/kg iv; compared with control group; Fig. 13
[8] = system: 急性早幼粒白血病细胞NB4; assay: Mouse APL model: CD33 immunohistochemistry of liver and spleen sections; format: in vivo, NOD/SCID小鼠; details: oprozomib 0.43 mg/kg iv, arsenic trioxide 1.53 mg/kg iv; compared with control group; Fig. 14

Row | Compound | Enhancement of the cancer cell inhibition of arsenic trioxide by a proteasome inhibitor [1] | 细胞存活率 (cell survival rate) [1] | 细胞存活率 (cell survival rate) [2] | 细胞存活率 (cell survival rate) [3] | 细胞存活率 (cell survival rate) [4] | 细胞存活率 (cell survival rate) [5] | Human CD33+ positive cells in mouse bone marrow [6] | Infiltrating tumour cells in liver and spleen (HE staining) [7] | Human CD33 expression in liver and spleen sections (immunohistochemistry) [8]
1 | CC(C)C[C@@H](C=O)NC(=O)[C@H](CC(C)C)NC(=O)[C@H](CC(C)C)NC(=O)OCc1ccccc1 [MG132] (Cbz-Leu-Leu-Leu-aldehyde) | 并不能增加三氧化二砷的癌细胞抑制效果 | – | – | – | – | – | – | – | –
2 | O=[As][As+](=O)[O-] (stereo not drawn) [三氧化二砷] | – | 无明显影响 | 无明显影响 | 无明显影响 | 无明显影响 | 无明显影响 | 有所减少 | 略有减少但不明显 | 略有减少但不明显
3 | COC[C@H](NC(=O)c1cnc(C)s1)C(=O)N[C@@H](COC)C(=O)N[C@@H](Cc1ccccc1)C(=O)[C@@]1(C)CO1 [奥普佐米] | 能极大地提升三氧化二砷的癌细胞抑制效果 | 无明显影响 | 无明显影响 | 无明显影响 | 无明显影响 | 无明显影响 | 有所减少 | 略有减少但不明显 | 略有减少但不明显

— patent CN113018415A, “一种新的药物组合及其应用” (priority 2021, dated 2021)
